This note sets out measurements from patent US20160220710A1, “COMPOSITIONS AND METHODS FOR DELIVERING PHARMACEUTICAL AGENTS” (THE REGENTS OF THE UNIVERSITY OF MICHIGAN, priority 2015, published 2016).

Where two headings read alike, the source gives them in different places.

A word on the cell viability: it is a read-out of living cells in per cent, often relative to untreated cells.

The subject of data set [1] is RAW 264.7 cells. In words: Cell viability assay (XTT assay). Format: cell-based, murine. The note with it: 24 h. The procedure: Cells were plated in triplicate wells at a density of 5×10^3 per well in 96-well plates in DMEM with 5% FBS and allowed to adhere overnight. Soluble CFZ (Stock solution 5 mM in DMSO) or CLDIs were added (0.25, 0.5, 1, 2, 4, 10, 20, 40 and 80 μM final concentrations) to cells and incubated (37° C.) for 24 h. XTT assay (Roche, UK) was carried out according to the manufacturer's instructions with absorbance measured at 450 nm and 690 nm using a Synergy-2 plate reader (Biotek). The cell viability percentage was calculated by comparing absorbance of CFZ and CLDI-treated cells to control (untreated) cells.
For orientation: Tetrazolium assays rely on reduction of a dye to a coloured formazan, in cell work by metabolically active cells.

The subject of data set [2] is RAW 264.7 cells. In words: MitoTracker Red live cell staining (mitochondrial membrane potential). Format: cell-based, murine. The conditions noted are these: 10 μM. How it is done:
Cells were cultured with CFZ or CLDI media for 24 h in chamber slides (Lab Tek) and stained with 150 nM of MitoTracker Red CMXRos (MTR, Life Technologies) in fresh media for 45 min, and then NucBlue Live Cell Stain (Life Technologies) was applied for 10 min for nuclear staining. After incubation, extracellular MTR and NucBlue were washed twice with DPBS and the cells were visualized on a Nikon Eclipse Ti fluorescence microscope (Japan) using Texas Red (Mitotracker) and DAPI (NucBlue) filters. Real-time live cell images were captured every 10 sec for 30 min with the same microscope and video was created using the Nikon Elements software. For confocal imaging of intracellular CLDIs, FM 1-43 (Life Technologies) was used at 3.5 μM (15 min at 37° C.) for membrane staining followed by NucBlue (10 min). After washing with DPBS, cells were visualized using laser-scanning confocal microscopy (Olympus Fluoview 500) fitted with argon (FITC) and HeNe Red lasers (Cy5). Images were taken along the z-axis with a 60× objective at 0.25 μm intervals and the composite Z-stack images were created using the Nikon Elements software.

Data set [3] has as its system caspase-3 and PARP cleavage. Put plainly: Western blot of caspase 3, cleaved caspase 3 and cleaved PARP. Format: cell-based, murine. The note with it: 4 and 10 μM, 24 h. A general note: Immunoblotting shows a protein as a band on a membrane.
The subject of the next data set is IκB. Put plainly: Western blot of phosphorylated IκB. Format: cell-based, murine. The note with it: 1 h. How it is done: The murine macrophage cell line RAW 264.7 was purchased from ATCC (Manassas, Va.) and maintained in DMEM (Life Technologies, Carlsbad, Calif.) supplemented with 10% FBS. Soluble CFZ or isolated CLDIs were added at various concentrations in DMEM with 5% FBS to 6-well plates containing 4×10^5 cells/well and incubated (24 h at 37° C. and 5% CO2). Culture supernatants were harvested at 24 h, centrifuged (1500×g for 5 min), and stored (−20° C.) in frozen aliquots prior to analysis. For experiments involving TLR stimulation, cells were washed twice with pre-warmed DPBS to remove extracellular, non-phagocytosed CLDIs or CFZ, and then the cells were serum-starved for 18 h in DMEM. Supernatants were collected from unstimulated cells and cells stimulated with 200 ng/ml Pam3 or 1 μg/ml LPS in DMEM.

Data set [4] concerns caspase 1, IL-1β, TNFα, IL-1RA. In words: Inflammasome proteins and cytokines in organs of CFZ-treated mice. Format: in vivo. How it is done: Clofazimine (CFZ, Sigma-Aldrich, C8895) was prepared in sesame oil (Shirakiku, Japan, or Roland, China) and Powdered Lab Diet 5001 (PMI International, Inc., St. […] Baik et al., 2011, supra). Control mice were fed with the same diet without CFZ. The animal protocol was approved by the University of Michigan's Animal Care and Use Committee in accordance with the National Institutes of Health guidelines (UCUCA #PRO0005111). Mouse Bronchoalveolar Lavage (BAL) Harvest and Isolation of Alveolar Macrophages, Immunohistochemistry and Imaging, SDS-PAGE and Western Blot, Cytokine Measurements

For another data set, the system named is IL-1RA, TNFα, IL-1β. Put plainly: Serum cytokines of CFZ-treated mice. Format: in vivo. How it is done: (§1) Clofazimine (CFZ, Sigma-Aldrich, C8895) was prepared in sesame oil (Shirakiku, Japan, or Roland, China) and Powdered Lab Diet 5001 (PMI International, Inc., St. Louis, Mo.) and orally administrated to Wild-type (WT) C57BL/6 mice or IL-1RA^−/− (4-5 week old, Jackson Laboratory, Bar Harbor, Me.) for up to 8 weeks ad libitum as previously described (Baik et al., 2013, supra; Baik et al., 2011, supra). Control mice were fed with the same diet without CFZ. The animal protocol was approved by the University of Michigan's Animal Care and Use Committee in accordance with the National Institutes of Health guidelines (UCUCA #PRO0005111).
Mouse Bronchoalveolar Lavage (BAL) Harvest and Isolation of Alveolar Macrophages, Immunohistochemistry and Imaging, SDS-PAGE and Western Blot, Cytokine Measurements

The test system of the next data set is alveolar macrophages. Further details: species or system mice. The conditions noted are these: mouse, in vivo, 6 weeks. How it is done: as §1
PBS/LPS-instilled CFZ- or control mice were euthanized by exsanguination while deeply anesthetized with an intraperitoneal injection of ketamine/xylazine. The trachea was surgically exposed and cannulated with an 18 G needle and the lungs were lavaged by instilling 1 ml DPBS (Life Technologies) containing 0.5 mM EDTA (Sigma). The retrieved BAL was then centrifuged (10 min at 400×g, 4° C.), and the supernatant was frozen (−80° C.), while the cell pellets were resuspended in 1 ml RPMI 1640 media (Life Technologies). To count total cells, the cells were stained with Trypan blue and counted using a hemocytometer. […]

The mark [5] stands for this setting: 2 weeks of oral drug administration.

In the case of `CC(C)/N=c1\cc2n(-c3ccc(Cl)cc3)c3ccccc3nc-2cc1Nc1ccc(Cl)cc1` [CFZ, 3-(p-chloroanilino)-10-(p-chlorophenyl)-2, 10-dihydro-2-isopropyliminophenazine], the cell viability with RAW 264.7 cells [1] (2 μM) is on record as 61%; with RAW 264.7 cells [1] (10 μM), 20%. For the same compound, the “mitochondrial membrane potential (Mitotracker Red staining)” value with RAW 264.7 cells [2] was “diffuse cytoplasmic MTR staining, indicative of mitochondrial membrane depolarization”. Also, the “nuclear MTR signal vs untreated cells” value in the data set on RAW 264.7 cells [2] is recorded as 4 fold. Further, in data set [3], the PARP cleavage entry is “increased PARP cleavage”. In addition, the IκB phosphorylation entry in the data set with IκB (LPS stimulation) is on record as “inhibited LPS/TLR4-mediated IκB phosphorylation”; in the data set on IκB (Pam3 stimulation) it was “the Pam3/TLR2-mediated response was not affected”. Besides, in data set [4] (2 and 8 weeks, except liver at 2 weeks), the “TNFα expression in organs” value was “unchanged by CFZ at both 2 and 8 weeks”. For the same compound, the “cleavage of hepatic caspase 1 and IL-1β” value in data set [4] (2 weeks of CFZ) is “only moderate cleavage of hepatic caspase 1 and IL-1β”. For the same compound, the “IL-1RA in the liver” value in data set [4] (setting [5]) is on record as “did not cause significant IL-1RA change in the liver”. Further, the “spleen and lung IL-1RA levels” value in data set [4] (setting [5]) was “slightly increased”. Moreover, the “IL-1RA levels in the kidney” value in data set [4] (8 weeks) is on record as “unchanged”. In data set [4] (8 weeks of CFZ), the “hepatic caspase 1 cleavage and IL-1β maturation” value is on record as “significantly reduced”. In data set [4] (8 weeks of oral administration), the “IL-1RA expression in liver, spleen and lung” value is on record as “major upregulation of IL-1RA expression”. Further, in data set [4] (mouse, in vivo), the “IL-1β levels in the spleen, lung and kidney” value was “did not change”. Moreover, the “serum IL-1RA levels” value in the data set with IL-1RA, TNFα, IL-1β (8 weeks) was “increase in serum IL-1RA levels”. Besides, the “TNFα or IL-1β in the serum” value with IL-1RA, TNFα, IL-1β (all conditions) is “not possible to detect”. Moreover, the “CLDI+ alveolar macrophages” value was determined as 65% with alveolar macrophages (C57BL/6 (wild-type)) and 60% in the data set on alveolar macrophages (IL-1RA−/−).
